Measured values published in patent US20230174946A1, “ORGAN INFECTION MODELS” (priority 2020, published 2023).
Read-outs that look alike come from different tables or passages of the source.

Key:
SARS-CoV-2 [1] = assay type: cell-based; details: for effect on viral N gene RNA / viral replication in proximal ALI cultures (in words): pre-treatment, 10 µM Hydroxychloroquine or Remdesivir, 100 units/ml IFNB1
SARS-CoV-2 [2] = assay type: cell-based; details: 10 µM Hydroxychloroquine or Remdesivir, 100 units/ml IFNB1
SARS-CoV-2 [3] = assay type: cell-based; details: 10 µM Hydroxychloroquine or Remdesivir, 100 units/ml IFNB1; for reduction in viral N gene RNA/expression compared to untreated infected organoids: human 3D alveolar organoids
coxsackievirus = details: dose-dependent; previous study; cited from earlier work

Compound | effect on viral N gene RNA / viral replication in proximal ALI cultures (in words) (SARS-CoV-2 [1]) | effect on viral N gene RNA / viral replication in proximal ALI cultures (in words) (SARS-CoV-2 [1]; listed as hydroxychloroquine) | reduction in viral N gene RNA/expression compared to untreated infected AT2 cultures (SARS-CoV-2 [2]) [log] | effect on viral infection/replication in AT2 cultures (in words) (SARS-CoV-2 [2]; pre-treatment) | reduction in viral N gene RNA/expression compared to untreated infected organoids (SARS-CoV-2 [3]) [log] | effect on viral replication in alveolar organoid cultures (in words) (SARS-CoV-2 [3]; pre-treatment) | reduction in viral N gene RNA abundance (SARS-CoV-2 [1]) [log] | effect on coxsackievirus proliferation in vitro (coxsackievirus)
CCN(CCO)CCCC(C)Nc1ccnc2cc(Cl)ccc12 (stereo not shown) [Hydroxychloroquine] | did not show a significant effect | did not have an effect on viral replication | 2.4 | significantly reduced viral replication | 2.4 | significantly reduced viral replication | – | –
CCC(CC)COC(=O)[C@H](C)N[P@](=O)(OC[C@H]1O[C@@](C#N)(c2ccc3c(N)ncnn23)[C@H](O)[C@@H]1O)Oc1ccccc1 [Remdesivir] | – | – | 9 | – | 9 | – | 10.2 | –
NC(=O)c1ncn([C@@H]2O[C@H](CO)[C@@H](O)[C@H]2O)n1 [ribavirin] | – | – | – | – | – | – | – | significantly reduce coxsackievirus proliferation
